The source made the active and inactive calls. The rule behind the calls is not given here.
Tests used:
Lipopolysaccharide (LPS) = assay: Displacement of BODIPY-TR-cadaverin from Escherichia coli O111:B4 Lipopolysaccharide assessed as increase in binding factor at 10 to 40 uM preincubated for 15 mins followed by BODIPY-TR-cadaverin addition and measured after 15 mins by fluorescence based analysis; details: dose 10-40 µM, time 30.0 min
[1] = Stability in human serum assessed as intact peptide remaining at 1 mM measured after 8 hrs by HPLC analysis; assay type: ADME, cell-free; details: read-out: Stability
Pseudomonas aeruginosa [2] = assay: Antibacterial activity against patient-derived Pseudomonas aeruginosa assessed as inhibition of bacterial growth incubated for 24 hrs by CLSI protocol based microdilution method; assay type: functional
Staphylococcus aureus [3] = assay: Antibacterial activity against patient-derived methicillin-resistant Staphylococcus aureus assessed as inhibition of bacterial growth incubated for 24 hrs by CLSI protocol based microdilution method; assay type: functional
Klebsiella pneumoniae [4] = assay: Antibacterial activity against Klebsiella pneumoniae ATCC BAA-1705 assessed as inhibition of bacterial growth incubated for 24 hrs by CLSI protocol based microdilution method; assay type: functional
[5] = Hemolytic activity in human RBC assessed as hemolysis at 3.125 to 12.5 uM incubated for 30 mins under shaking condition by multiplate reader analysis relative to control; assay type: toxicity, cell-based, Erythrocyte; details: human red blood cells (RBC), dose 3.125-12.5 µM, read-out: Activity
[6] = Cytotoxicity against human WI-38 cells assessed as cell viability at 25 uM incubated for 24 hrs by MTT assay relative to control; assay type: toxicity, cell-based; details: read-out: Activity
[7] = Cytotoxicity against human A549 cells assessed as cell viability at 25 uM incubated for 24 hrs by MTT assay relative to control; assay type: toxicity, cell-based; details: read-out: Activity
RAW264.7 = assay: Antiinflammatory activity in LPS-induced mouse RAW264.7 cells assessed as increase in TGF-beta1 expression at 5 to 10 uM incubated for 24 hrs by radioimmunoprecipitation based dot-plot analysis; assay type: functional, cell-based; details: dose 5-10 µM
Escherichia coli [8] = assay: Antibacterial activity against Escherichia coli assessed as inhibition of bacterial growth at 1.25 to 40 uM by microtiter plate reader analysis; assay type: functional, organism-based; details: dose 1.25-40 µM, time 0.5-8.5 hrs, TDE = time-dependent effect
Klebsiella pneumoniae [9] = assay: Antibacterial activity against carbapenem resistance Klebsiella pneumoniae ATCC BAA-1705 assessed as inhibition of bacterial growth at 1.25 to 40 uM by microtiter plate reader analysis; assay type: functional, organism-based; details: dose 1.25-40 µM, time 0.5-8.5 hrs, TDE = time-dependent effect
Escherichia coli [10] = assay: Antibacterial activity against Escherichia coli assessed as inhibition of bacterial growth at 1.25 to 40 uM incubated for 8 hrs by microtiter plate reader analysis; assay type: functional, organism-based; details: dose 1.25-40 µM
Staphylococcus aureus [11] = assay: Induction of morphological changes in methicillin-resistant Staphylococcus aureus at MIC concentration incubated for 6 hrs by AFM analysis; assay type: functional, organism-based
Escherichia coli [12] = assay: Induction of morphological changes in Escherichia coli at MIC concentration incubated for 60 mins by SEM analysis; assay type: functional, organism-based
Staphylococcus aureus [13] = assay: Induction of morphological changes in methicillin-resistant Staphylococcus aureus at MIC concentration incubated for 60 mins by SEM analysis; assay type: functional, organism-based
Pseudomonas aeruginosa [14] = assay: Induction of morphological changes in Pseudomonas aeruginosa assessed as membrane damage at MIC concentration incubated for 60 mins by SEM analysis; assay type: functional, organism-based
Staphylococcus aureus [15] = assay: Induction of morphological changes in methicillin-resistant Staphylococcus aureus assessed as abnormal cell shrinkage at MIC concentration incubated for 60 mins by SEM analysis; assay type: functional, organism-based
Pseudomonas aeruginosa [16] = assay: Induction of morphological changes in Pseudomonas aeruginosa assessed as inhibition of cell division by measuring elongated cells at MIC concentration incubated for 60 mins by SEM analysis; assay type: functional, organism-based
Cell membrane [17] = assay: Induction of cytoplasmic membrane depolarization in Pseudomonas aeruginosa assessed as increase in fluorescence intensity at 0.5 to 1 times of MIC by DiSC3-5 dye based fluorescence method; assay type: subcellular
Cell membrane [18] = assay: Induction of inner membrane permeabilization in Escherichia coli assessed as increase in fluorescence at 0.5 to 1 times of MIC incubated for 60 mins by PI staining based fluorescence analysis; assay type: subcellular
Escherichia coli [19] = assay: Antibacterial activity against Escherichia coli assessed as induction of cellular damage at MIC concentration incubated for 30 mins by SYTO9/PI staining based fluorescence microscopic analysis; assay type: functional, organism-based
Klebsiella pneumoniae [20] = assay: Antibacterial activity against Klebsiella pneumoniae assessed as cell division block by measuring bacterial filamentation at 0.5 to 1 times of MIC incubated for 30 mins by SYTO9/PI staining based fluorescence microscopic analysis; assay type: functional, organism-based
Pseudomonas aeruginosa [21] = assay: Antibacterial activity against Pseudomonas aeruginosa assessed as cell division block by measuring bacterial filamentation at 0.5 to 1 times of MIC incubated for 30 mins by SYTO9/PI staining based fluorescence microscopic analysis; assay type: functional, organism-based
Escherichia coli [22] = assay: Antibacterial activity against Escherichia coli assessed as cell division block by measuring cellular elongation at 0.5 to 1 times of MIC incubated for 30 mins by SYTO9/PI staining based fluorescence microscopic analysis; assay type: functional, organism-based
Pseudomonas aeruginosa [23] = assay: Antibiofilm activity against Pseudomonas aeruginosa assessed as biofilm eradication at 1 times of MIC incubated for 24 hrs by CV staining based analysis relative to control; assay type: functional
Pseudomonas aeruginosa [24] = assay: Antibiofilm activity against Pseudomonas aeruginosa assessed as clearance of preformed biofilm at 0.5 times of MIC incubated for 24 hrs by CV staining based analysis relative to control; assay type: functional
Escherichia coli [25] = assay: Antibiofilm activity against Escherichia coli in the presence of Na+; assay type: functional, organism-based
Escherichia coli [26] = assay: Antibiofilm activity against Escherichia coli in the presence of Cl-; assay type: functional, organism-based
Klebsiella pneumoniae [27] = assay: Antibiofilm activity against Klebsiella pneumoniae in the presence of Na+; assay type: functional, organism-based
Pseudomonas aeruginosa [28] = assay: Antibiofilm activity against Pseudomonas aeruginosa in the presence of Cl-; assay type: functional, organism-based
Staphylococcus aureus [29] = assay: Antibiofilm activity against preformed biofilm in methicillin-resistant Staphylococcus aureus assessed as decrease in cell viability at MIC incubated overnight by MTT assay relative to control; assay type: functional
Rattus norvegicus [30] = species on record: Rattus norvegicus; assay: Induction of wound healing in surgically-induced Albino Wistar rat wound model assessed as dense epithelial-tissue layers at 10 uM measured after 11 days by H&E staining based analysis; assay type: functional; details: time 11.0 day
Rattus norvegicus [31] = species on record: Rattus norvegicus; assay: Induction of wound healing in surgically-induced Albino Wistar rat wound model assessed as proper formation of blood vessels at 10 uM measured after 11 days by H&E staining based analysis; assay type: functional; details: time 11.0 day
Rattus norvegicus [32] = species on record: Rattus norvegicus; assay: Induction of wound healing in surgically-induced Albino Wistar rat wound model inoculated with methicillin-resistant Staphylococcus aureus assessed as reduction in inflammatory cell infiltration at 10 uM measured after 11 days by H&E staining based analysis; assay type: functional; details: time 11.0 day
Rattus norvegicus [33] = species on record: Rattus norvegicus; assay: Induction of wound healing in surgically-induced Albino Wistar rat wound model inoculated with methicillin-resistant Staphylococcus aureus assessed as sebaceous gland formation at 10 uM measured after 11 days by H&E staining based analysis; assay type: functional; details: time 11.0 day
Rattus norvegicus [34] = species on record: Rattus norvegicus; assay: Induction of wound healing in surgically-induced Albino Wistar rat wound model inoculated with methicillin-resistant Staphylococcus aureus assessed as reduction in inflammatory signs at 10 uM measured after 11 days by H&E staining based analysis; assay type: functional; details: time 11.0 day
Pseudomonas aeruginosa [35] = assay: Induction of resistance development in Pseudomonas aeruginosa assessed as change in MIC at 0.5 times of MIC incubated with compound for 12 hrs followed by replacement with fresh medium for 12 hrs and measured after 20 repeated cycles; assay type: functional, organism-based; details: time 240.0 hrs
Klebsiella pneumoniae [36] = assay: Induction of resistance development in Klebsiella pneumoniae assessed as fold increase in MIC at 0.5 times of MIC incubated with compound for 12 hrs followed by replacement with fresh medium for 12 hrs and measured after 20 repeated cycles; assay type: functional; details: time 240 hrs

What does the source list for H-FLPIIKWVKKFFWRWR-OH?
Activity (Lipopolysaccharide (LPS)): Active; remaining at 8 h, 1000 µM [1]: 61%; MIC (Pseudomonas aeruginosa [2]): 4 µM; MIC (Staphylococcus aureus [3]): 6 µM; MIC (Klebsiella pneumoniae [4]): 8 µM; hemolysis at 0.5 h, up to 12.5 µM [5]: 3.22%; viability at 24 h, 25 µM [6]: 88.3%; viability at 24 h, 25 µM [7]: 55.4%; Activity (RAW264.7): Active; Activity (Escherichia coli [8]): Tde; Activity (Klebsiella pneumoniae [9]): Tde; Activity (Escherichia coli [10]): Active; Activity (Staphylococcus aureus [11]): Active; Activity (Escherichia coli [12]): Active; Activity (Staphylococcus aureus [13]): Active; Activity (Pseudomonas aeruginosa [14]): Active; Activity (Staphylococcus aureus [15]): Active; Activity (Pseudomonas aeruginosa [16]): Active; Activity (Cell membrane [17]): Active; Activity (Cell membrane [18]): Active; Activity (Escherichia coli [19]): Active; Activity (Klebsiella pneumoniae [20]): Active; Activity (Pseudomonas aeruginosa [21]): Active; Activity (Escherichia coli [22]): Active; Activity (Pseudomonas aeruginosa [23]): <=72.73%; Activity (Pseudomonas aeruginosa [24]): ~53%; Activity (Escherichia coli [25]): Active; Activity (Escherichia coli [26]): Active; Activity (Klebsiella pneumoniae [27]): Active; Activity (Pseudomonas aeruginosa [28]): Active; Activity (Staphylococcus aureus [29]): 33.89%; Activity (Rattus norvegicus [30]): Active; Activity (Rattus norvegicus [31]): Active; Activity (Rattus norvegicus [32]): Active; Activity (Rattus norvegicus [33]): Active; Activity (Rattus norvegicus [34]): Active; Activity (Pseudomonas aeruginosa [35]): inactive; fold change (FC) (Klebsiella pneumoniae [36]): 2

From ChEMBL document CHEMBL5360649, “Potential Broad-Spectrum Antimicrobial, Wound Healing, and Disinfectant Cationic Peptide Crafted from Snake Venom” (J Med Chem, 2023)
